Laboratory results from article PMC9734143, “An efficient human stem cells derived cardiotoxicity testing platform for testing oncotherapeutic analogues of quercetin and cinnamic acid” (Scientific Reports, 2022).

Key:
[1] = tested on: H9C2 cells; assay: Fura-2AM intracellular calcium assay in H9C2 cells; type: cell-based, rat; conditions: 24 h; analogues at Vero IC50 concentration
Procedure: (§1) Intracellular calcium flux was measured using the fluorescent radiometric Ca^2+ indicator, Fura-2 acetoxymethyl ester (Fura-2, AM; Invitrogen, Carlsbad, USA). Briefly, after 24 h of treatment, Fura-2AM (1 μmol/L) was added to cells and incubated for 30 min at 37 °C. The intracellular calcium flux was measured at excitation of 340 nm and 380 nm and emission of 510 nm using a multimode plate reader.

[2] = tested on: WJMSC-derived cardiomyocytes (WJCM); assay: Griess assay (NO release) in WJCM; type: cell-based, human; conditions: 24 h
Procedure: (§2) Nitric oxide (NO) release was estimated using the Griess assay. Briefly, after 24 h of drug treatment, Griess reagent (Sigma Aldrich, MO, USA) was added to cells in equal volume and incubated for 30 min in the dark, and absorbance was taken at 540 nm via multimode plate reader.

[3] = tested on: WJMSC-derived cardiomyocytes (WJCM); assay: Fura-2AM intracellular calcium assay in WJCM; type: cell-based, human; conditions: 24 h; analogues at Vero IC50 concentration
Procedure: as §1

[4] = tested on: cardiomyocytes (WJCM and H9C2 cells); assay: Cardiotoxicity across parameters as summarised in the discussion (WJCM and H9C2 cells); type: cell-based, human and rat; conditions: for overall cardiotoxicity across the parameters analyzed: analogues at Vero IC50 concentration, 24 h; for active mitochondria status in treated cardiomyocytes / cytotoxic effect against cardiomyocytes by MTT, CCK-8 and LDH assay / intracellular calcium level in treated cardiomyocytes: discussion summary, cell model not specified
From the text: We investigated the effects of 3-hydroxyflavone (QMJ-2, QMJ-5, and QMJ-6) and cinnamyl sulfonamide-hydroxamate (NMJ-1, NMJ-2, NMJ-3) in WJCM and H9C2 cells using the concentrations reported for non-cancerous Vero cells. The prerequisite for any synthesized drug molecules is that they should be nontoxic to cardiac cells.

[5] = tested on: Vero, a non-cancerous cell line; parameters: method as in PMID 25824412, PMID 30687400; conditions: read-out: IC50 in Vero cells; cited from earlier work
[6] = tested on: cardiac markers (NKX2.5, GATA4, Troponin I, Troponin T, MHCα) in WJCM; assay: qRT-PCR gene expression of cardiac-specific markers in WJCM; conditions: qRT-PCR; analogues at Vero IC50 concentration
Procedure: Differentiation of WJMSCs was done using a proprietary combination of DNMT and HDAC inhibitors in KO-DMEM/F-12 containing 10% FBS for 48 h. Induction media was replaced with culture media i.e. KO-DMEM/F-12 with 1X GlutaMAX and, 10% FBS after 48 h for 7 days[23].
WJMSC-derived cardiomyocytes (WJCM) and H9C2 were treated with NMJ and QMJ analogues for 24 h. […] To illustrate the toxicity specific to cardiac cells and not a general cytotoxicity, WJMSCs were treated with positive cardiotoxic drugs.
Total ribonucleic acid (RNA) was isolated using RNAiso Plus (TaKaRa, Shiga, Japan) followed by cDNA conversion using PrimeScript™ 1st strand cDNA synthesis kit (TaKaRa, Shiga, Japan). Quantitative reverse transcriptase-polymerase chain reaction (qRT-PCR) was performed by using TB Green™ Premix Ex Taq™ II (Tli RNase H Plus; TaKaRa, Shiga, Japan) for cardiac markers in a QuantStudio™ 5 real-time PCR Systems (Applied Biosystems, USA). All the primers were purchased from Sigma Aldrich, Bangalore, India (Table 1). The relative gene expression was calculated using 2^-∆∆CT and GAPDH, a housekeeping gene was used as endogenous control[52],[53].

[7] = tested on: H9C2 cells; assay: LDH release assay in H9C2 cells; type: cell-based, rat; conditions: 24 h; analogues at Vero IC50 concentration
Procedure: (§3) The experiment was performed as per the manufacturer’s protocol. Absorbance was taken at 490 nm and 680 nm (background signal) using multimode plate reader. LDH activity was calculated by subtracting absorbance taken at 680 nm from 490 nm.

[8] = tested on: WJMSC-derived cardiomyocytes (WJCM); assay: MTT and CCK-8 cell viability assays in WJCM; type: cell-based, human; conditions: 24 h; analogues at Vero IC50 concentration; Dox 1 µM
Procedure: (§4) Similarly, the toxicity of these compounds in terms of the viability of cells was estimated by using the MTT assay and cell counting kit-8 (CCK-8) assay. For MTT assay, after 24 h of treatments, MTT (5 mg/ml of PBS; HiMedia, India) was added, and cells were incubated for 2 h at 37 °C. The formazan crystals that were formed after the incubation were dissolved using dimethyl sulfoxide (DMSO). For the CCK-8 assay, 10 μL of CCK-8 solution (Boster Biological Technology, Pleasanton, CA, USA) was added to each well and incubated for 2 h at 37 °C. The absorbance for MTT and CCK-8 assay was measured at 570 nm and 450 nm respectively using the EnSight™ Multimode plate reader (Perkin Elmer, MA, USA)[49],[50].

[9] = tested on: H9C2 cells; assay: Griess assay (NO release) in H9C2 cells; type: cell-based, rat; conditions: 24 h; analogues at Vero IC50 concentration
Procedure: as §2

[10] = tested on: WJMSC-derived cardiomyocytes (WJCM); assay: LDH release assay in WJCM; type: cell-based, human; conditions: 24 h; analogues at Vero IC50 concentration
Procedure: as §3

[11] = tested on: WJMSC-derived cardiomyocytes (WJCM); assay: Intracellular ROS assay in WJCM; type: cell-based, human; conditions: 24 h; analogues at Vero IC50 concentration
Procedure: (§5) Generation of ROS was detected using Fluorometric intracellular ROS kit (Sigma Aldrich, MO, USA) as per manufacturer’s protocol. Fluorescence was measured at excitation and emission of 650 nm and 675 nm respectively via multimode plate reader[50],[51].

[12] = tested on: H9C2 cells; assay: TMRE mitochondrial membrane potential assay in H9C2 cells; type: cell-based, rat; conditions: 24 h; analogues at Vero IC50 concentration
Procedure: (§6) Mitochondrial membrane potential of the cells after drug treatment was detected using tetramethylrhodamine ethyl ester dye (TMRE; Molecular Probes, CA, USA). The cells were incubated with 0.3 µM TMRE dye and incubated at 37 °C for 30 min in dark. Fluorescence intensity of TMRE was measured at excitation and emission of 549 nm and 574 nm respectively via a multimode plate reader.

[13] = tested on: H9C2 cells; assay: MTT cell viability assay in H9C2 cells; type: cell-based, rat; conditions: 24 h, analogues at Vero IC50 concentration
Procedure: as §4

[14] = tested on: H9C2 cells; assay: Intracellular ROS assay in H9C2 cells; type: cell-based, rat; conditions: 24 h; analogues at Vero IC50 concentration
Procedure: as §5

[15] = tested on: WJMSC-derived cardiomyocytes (WJCM); assay: TMRE mitochondrial membrane potential assay in WJCM; type: cell-based, human; conditions: 24 h; analogues at Vero IC50 concentration
Procedure: as §6

| Structure (SMILES) | intracellular Ca2+ accumulation in H9C2 cells (Fura-2AM) [1] | intracellular Ca2+ accumulation in WJCM (Fura-2AM) [3] | overall cardiotoxicity across the parameters analyzed [4] | active mitochondria status in treated cardiomyocytes [4] | cytotoxic effect against cardiomyocytes by MTT, CCK-8 and LDH assay [4] | intracellular calcium level in treated cardiomyocytes [4] | IC50 [5] [µM] | GATA4 gene expression in WJCM [6] | MHCα gene expression in WJCM [6] | NKX2.5 gene expression in WJCM [6] | Troponin I gene expression in WJCM [6] | LDH release in H9C2 cells [7] | toxicity / cell viability in WJCM (MTT, CCK-8), result in words [8] | NO level in H9C2 cells (Griess) [9] | LDH release in WJCM [10] | ROS activity in WJCM [11] | mitochondrial membrane potential in H9C2 cells (TMRE) [12] | Troponin T gene expression in WJCM, increase [6] | viability of H9C2 cells (MTT), result in words [13] | ROS activity in H9C2 cells [14] | further results |
| --- | --- | --- | --- | --- | --- | --- | --- | --- | --- | --- | --- | --- | --- | --- | --- | --- | --- | --- | --- | --- | --- |
| O=C(/C=C/c1ccc(S(=O)(=O)NCCc2cccs2)cc1)NO [NMJ-2] | decrease in Ca^2+ accumulation | decrease in Ca^2+ accumulation | do not display significant cardiotoxicity | remains unaffected | no cytotoxic effect | remained low | 8.2 | marked upregulation | marked upregulation | significant increase | marked upregulation | increase in LDH | less toxic | elevated NO levels | increase in LDH | lowered ROS activity | increased mitochondrial membrane potential |  |  |  | NO level in WJCM (Griess), result in words ([2]; analogues at Vero IC50 concentration): elevated NO levels; Troponin T gene expression in WJCM, result in words [6]: milder increase |
| COc1ccc2c(=O)c(O)c(-c3ccc(C)cc3)oc2c1 [QMJ-6, 3-Hydroxy-7-methoxy-2-(4-methylphenyl)-4H-1-benzopyran-4-one] | decrease in Ca^2+ accumulation | decrease in Ca^2+ accumulation | do not display significant cardiotoxicity | remains unaffected | no cytotoxic effect | remained low | 153 | marked upregulation | marked upregulation | significant increase | marked upregulation | no to little change | less toxic | elevated NO levels | no to little change | lowered ROS activity | increased mitochondrial membrane potential | 8–10 fold | increase in viability | lowered ROS activity | mitochondrial membrane potential in WJCM (TMRE) [15]: increased mitochondrial membrane potential |
| O=C(/C=C/c1ccc(S(=O)(=O)NCc2ccco2)cc1)NO [NMJ-3] | decrease in Ca^2+ accumulation | decrease in Ca^2+ accumulation | do not display significant cardiotoxicity | remains unaffected | no cytotoxic effect | remained low | 15.1 | marked upregulation | marked upregulation |  | marked upregulation | no to little change | less toxic |  | no to little change | lowered ROS activity | increased mitochondrial membrane potential | 8–10 fold | increase in viability | lowered ROS activity | decrease of NO level in WJCM (Griess) ([2]; NMJ-3 at 15.1 µM): 12%; decrease in viability of H9C2 cells (MTT) ([13]; Dox 1 µM): 10–20%; mitochondrial membrane potential in WJCM (TMRE) [15]: increased mitochondrial membrane potential |
